Test results reported in US20210348119A1, “COMPOSITIONS AND METHODS FOR CELL CULTURE” (The United States of America as Represented By The …, priority 2018, published 2021).
Like-named read-outs stand apart in the source and are kept apart here.

Tests used:
human kinases = experiment: Kinase profiling, HotSpot Kinase Assay; assay type: biochemical; conditions: Y-27632 at 10 μM, Chroman 1 at 50 nM; for specificity / off-target inhibition: under 10% of original activity deemed significant
Excerpt: The results of kinase profiling experiments are illustrated in FIG. 8. […] The phylogenic trees of human kinases were generated based on a neighbor-joining tree via ClustalW software derived from multiple protein sequence alignment of human kinase domains (Manning et al., “The protein kinase complement of the human genome” Science 298:1912-1934 (2002)).

hESCs (H9) = experiment: Western blot of hESCs after passaging; assay type: cell-based, human; conditions: 3 hours post-passage
Excerpt: GAPDH was used as a loading control and house-keeping protein control.
Higher observed levels of phosphorylated CHK2 on threonine 68 indicated cell cycle arrest.

H9 cells [1] = experiment: Cell survival after routine passage (caspase 3/7 imaging, CTG); assay type: cell-based, human; conditions: 100,000 cells per cm^2; 10 μM Y-27632, 50 nM Chroman 1, 5 μM Emricasan
H9 cells [2] = experiment: qHTS for survival of dissociated H9 cells (CellTiter-Glo, 24 hours after seeding); assay type: cell-based, human; conditions: Homo sapiens; for AC50: CellTiter-Glo 24 hours after seeding, read-out: AC50 (concentration at 50% efficacy)
Excerpt: FIG. 2 schematically illustrates qHTS procedure.
All the screed compounds were received pre-plated at the pre-determined concentrations. […] Curve classification is explained in Huang et al. “Chemical genomics profiling of environmental chemical modulation of human nuclear receptors” Environ. Health. Perspect.

OCT4 expressing cells = experiment: Microscopy of stress mechanisms during cell passaging; assay type: cell-based; conditions: 3 hours post-plating
Procedure: The scale bars shown are 10 μm. Upper panel illustrates confocal microscopic analysis of the lamin B1-GFP iPSC reporter line (Allen Insitute for Cell Science, Seattle, Wash.) displaying dramatic morphological differences in nuclear shape during cell passaging (30 min after plating). […] Lower panel illustrates dramatic cytoskeletal differences during cell passaging (3 hours post-plating), as measured by immunocytochemistry against actin and myosin.

H9 cells [3] = experiment: Embryoid body formation assays; conditions: AggreWell plates, 24 hours after seeding
Procedure: In one series of experiments, H9 cells were dissociated with Accutase. […] Embryoid body (EB) formation was examined 24 hours after cell seeding.
In a different experimental approach (data not shown), a defined number of H9 cells was plated into AggreWell™ plates (StemCell Technologies, Vancouver, Canada) to generate single EBs per well. Embryoid body (EB) formation was examined 24 hours after cell seeding.
Pluripotent stem cells (WA09, also called H9 cells, obtained from WiCell, Madison, Wis.) dissociated with Accutase were seeded into AggreWell™ plates (StemCell Technologies, Vancouver, Canada) to generate EBs. Bright field images were taken 24 hours after seeding.
H9 cells dissociated with Accutase were seeded into 96-well plates (ultra-low attachment) to generated EBs. After 24 hours, calcein (green staining, live cells) and PI (red staining, dead cells) were added to the cell culture medium to visualize live and dead cells in the wells.

H9 cells [4] = experiment: Propidium iodide dead cell count of dissociated H9 cells; assay type: cell-based, human; conditions: 10 μM Y-27632 vs 50 nM Chroman 1; 12 hours after plating; EDTA or Accutase dissociation
Procedure: H9 cells were dissociated with 0.5 mM ethylenediaminetetraacetic acid (EDTA) or Accutase (enzymatic dissociation) according to standard procedures and seeded into vitronectin coated 6-well plates. Phase-contrast and fluorescence microscopy digital images were taken 12 hours after cell plating (data not shown). To generate the fluorescence microscopy images, live cells were stained with Calcein (0.5 μg/ML; Thermo Fisher Scientific, catalog number: C34852), and dead cells were stained with propidium iodide (PI; 500 nM; Thermo Fisher Scientific, catalog number: P3566). For quantitative analysis, the cells were counted using an automated cell counter (Cellometer Auto 2000, Nexcelom). The results of PI staining are illustrated in the bar graph shown in the right panel of FIG. 5.

ROCK1 = molecular target: T1, ROCK1 (Homo sapiens, UniProt Q13464); experiment: HotSpot Kinase Assay (Reaction Biology) ROCK1; assay type: biochemical
T1 construct: purchased Reaction Biology Corporation (Malvern, Pa.)
T1 sequence (Q13464 whole entry): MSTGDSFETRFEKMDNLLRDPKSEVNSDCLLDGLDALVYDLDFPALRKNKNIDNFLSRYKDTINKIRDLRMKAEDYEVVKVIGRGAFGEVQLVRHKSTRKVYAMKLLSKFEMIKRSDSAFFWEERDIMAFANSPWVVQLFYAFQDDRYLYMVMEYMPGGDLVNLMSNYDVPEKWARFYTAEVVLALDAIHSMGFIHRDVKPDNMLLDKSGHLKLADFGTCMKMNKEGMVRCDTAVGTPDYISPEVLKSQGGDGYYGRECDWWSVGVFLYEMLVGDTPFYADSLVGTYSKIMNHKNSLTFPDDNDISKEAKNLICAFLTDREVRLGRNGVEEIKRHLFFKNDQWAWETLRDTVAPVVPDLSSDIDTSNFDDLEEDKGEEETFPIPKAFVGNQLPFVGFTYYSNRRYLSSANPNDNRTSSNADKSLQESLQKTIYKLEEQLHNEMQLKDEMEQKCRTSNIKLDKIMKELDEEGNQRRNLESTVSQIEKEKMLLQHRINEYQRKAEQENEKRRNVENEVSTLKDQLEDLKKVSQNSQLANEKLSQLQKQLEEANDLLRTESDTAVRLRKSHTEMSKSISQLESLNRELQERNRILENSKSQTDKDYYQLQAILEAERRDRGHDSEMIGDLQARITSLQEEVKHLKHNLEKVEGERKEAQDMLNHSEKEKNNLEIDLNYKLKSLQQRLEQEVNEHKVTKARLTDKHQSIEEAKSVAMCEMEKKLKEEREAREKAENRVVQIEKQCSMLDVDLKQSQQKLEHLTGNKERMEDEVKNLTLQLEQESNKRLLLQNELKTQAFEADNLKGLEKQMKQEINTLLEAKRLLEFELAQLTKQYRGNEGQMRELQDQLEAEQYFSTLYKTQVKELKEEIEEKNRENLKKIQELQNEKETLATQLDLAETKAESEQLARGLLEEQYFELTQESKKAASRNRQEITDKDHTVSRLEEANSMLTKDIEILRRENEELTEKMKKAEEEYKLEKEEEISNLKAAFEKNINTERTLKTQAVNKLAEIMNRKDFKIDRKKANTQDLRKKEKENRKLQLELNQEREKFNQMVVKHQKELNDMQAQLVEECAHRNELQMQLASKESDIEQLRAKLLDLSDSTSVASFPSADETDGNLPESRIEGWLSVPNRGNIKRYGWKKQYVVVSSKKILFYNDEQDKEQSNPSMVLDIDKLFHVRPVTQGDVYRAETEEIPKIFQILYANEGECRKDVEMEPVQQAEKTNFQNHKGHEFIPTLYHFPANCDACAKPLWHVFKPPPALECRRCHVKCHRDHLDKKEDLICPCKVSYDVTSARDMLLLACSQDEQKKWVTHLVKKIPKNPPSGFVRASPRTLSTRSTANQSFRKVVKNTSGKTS

H9 cells [5] = experiment: Survival and attachment of single-cell dissociated cells (CellTiter-Glo, time-lapse imaging); assay type: cell-based, human; conditions: 50 nM Chroman 1, 5 μM Emricasan; vitronectin-coated plates, over 24 hours
Procedure: CellTiter-Glo® assay was used to quantify viable […] cells 24 hours post-plating (100,000 cells/[…]). […] Cellular stress was already apparent 20 minutes after plating in the presence of Emricasan, which ultimately led to dead cells at 24 hours.

H9 cells [6] = experiment: Dose-response curves of selected ROCK inhibitors, cell survival (CTG); assay type: cell-based, human; conditions: four replicates, normalized to CTG reading at 10 μM Y-27632
Excerpt: Molar concentrations of the selected ROCK inhibitors are plotted on the X-axis (log scale). […] Thusly normalized data were plotted on the Y-axis.

H9 cells [7] = experiment: Long-term passaging of H9 cells (40 passages); assay type: cell-based, human; conditions: 24 hours treatment at every passage
H9 cells [8] = experiment: Combinatorial matrix screening for synergistic effects on cell survival; assay type: cell-based, human; conditions: 10×10 matrix, normalized to 10 μM Y-27632
Procedure: Combinatorial matrix screening was performed to identify the compounds with synergistic effects on cell survival. Focusing on the compounds with different mechanisms of action, 29 compounds were selected for combinational matrix screening, resulting in 812 sets of 10×10 checkerboard matrix experiments (data not shown), four of which are illustrated in FIG. 9. The concentrations of the compounds for combinational matrix screening were optimized based on the slope and potency (AC50) derived from single-agent qHTS dose-response curves, so that the matrix screen covered a wide range of biological effect observed in the cell viability assay. […] The numerals in each 10×10 matrix show the maximum survival achieved with the indicated combinations or single agents. The maximum survival achieved by each pair of compounds is represented by the highest numbers in each 10×10 matrix, the examples of which are shown in FIG. 9. The bottom matrices depict the synergy matrix calculated using highest-single agent (HSA) model. The HSA synergy assesses the pro-survival benefit of compound combination compared to single agent alone, which was computed as the difference between cell survival out of combination and that from the best single agent at each tested concentration. Synergy is defined as the difference between the combination and max response with single agent (synergy=combination max (single agent A, single agent B).

H9 cells [9] = experiment: Colony formation at 25 cells/cm2; assay type: cell-based, human
Procedure: The experiments were performed validating the “hits” obtained from the primary screening. Pluripotent stem cells (H9 cells obtained from WiCell) were dissociated using TrypLE (Thermo-Fisher) and seeded into 6-well plates at a density of 25 cells/cm′.
Whole-well images (6-well plate) were captured with calcein green (0.5 μg/mL; Thermo Fisher Scientific, catalog number: C34852).
Systematic comparison of small molecule combinations and their effect on colony number and colony size of hESCs plated on vitronectin at 25 cells/cm^2 in StemFlex medium was performed. The quantification of the colony formation rate and median colony size was performed 6 days after plating.

H9 cells [10] = experiment: Low seeding density screen for synergy with Chroman 1 and Emricasan; assay type: cell-based, human; conditions: validation of qHTS hits
Procedure: To extend and maximize the use of Chroman 1 and Emricasan for low cell seeding density conditions and single cell cloning, we developed another combinatorial screening strategy. Experimental studies were performed that identified Trans-ISRIB and polyamines as additional cell survival-promoting factors. An assay was developed to screen for compounds that are capable of overcoming cellular stress associated with low cell seeding density. The experiments aimed to define the detection limit and signal strength of the CTG assay in order to detect single cells per well. H9 cells (obtained from WiCell) were used.
Dissociated stem cells were plated onto vitronectin-coated 1536-well plates at the per-well densities indicated on the X-axis. All the plates were prepared in duplicates. One set of plates was read with CTG right after dispensing (r1), and the other set was read 24 hours after (r2). The CTG fold change plotted on Y-axis was calculated as the ratio of r2 to r1 (r2/r1) to reflect cell survival and growth within 24 hours. […] The middle line within the box is the median cell growth. The upper and lower box hinges represent the 75th and 25th percentiles, whereas the upper and lower whiskers extend from the box hinge to the largest or lowest value no further than 1.5× distance between 25th and 75th percentile.

[11] = H9, 24 h, H9 cell survival normalized to 10 μM Y-27632 (taken to be 100%), read-out: Max (maximum activity value from all tested concentrations)
[12] = H9, 24 h, H9 cell survival, normalized to 10 μM Y-27632, read-out: Efficacy (activity range between predicted activities at zero and infinite doses, Hill equation)

Compound | primary targets (human kinases) | specificity / off-target inhibition (human kinases) | cell survival after single-cell dissociation (H9 cells [1]) | Emax (H9 cells [2]; [11]) | Emax (H9 cells [2]; [12]) | single EB formation and dead cells (H9 cells [3]) | cell attachment and survival in time-lapse imaging (H9 cells [5]) | also measured
C[C@@H](N)[C@H]1CC[C@H](C(=O)Nc2ccncc2)CC1 [Y-27632] | ROCK1 and ROCK2 | a number of off-targets, including PKCeta (also known as PKC η or PRKCH), PKCepsilon (also known as PKC ε or PRKCE), PKCdelta (also known as PKC δ or PRKCD), PKN1, PKN2 and PRKX | beneficial | 95.5% | 96.2% | Dead cells surrounded the EBs | – | phosphorylated eIF2A at serine 51 (hESCs (H9)): High levels of p-eIF2A(S51); stress response markers (γH2AX, ATF4) (hESCs (H9)): Strong stress response; cytoskeleton (actin, myosin immunocytochemistry) (OCT4 expressing cells): form prominent actin stress fibers at the colony edge; γH2AX immunoreactivity (OCT4 expressing cells): immunoreactive for γH2AX; number of propidium iodide-positive dead cells (H9 cells [4]): higher number of dead cells than Chroman 1 treatment
COc1ccc2c(c1)C[C@H](C(=O)Nc1ccc(-c3cn[nH]c3)cc1OCCN(C)C)CO2 [Chroman 1, (3S)—N-{2-[2-(Dimethylamino)ethoxy]-4-(1H-pyrazol-4-yl)phenyl}-6-methoxy-3,4-dihydro-2H-1-benzopyran-3-carboxamide] | ROCK1 and ROCK2 | higher specificity | further improved cell survival | 110% | 108% | amount of dead cells was significantly lower | cell attachment already 20 min after plating | IC50 against ROCK1 (comparison in words) (ROCK1): more potent ROCK inhibitor than Y-27632; AC50 (H9 cells [2]; H9, 24 h, H9 cell survival): 0.29 µM; potency in dose-response of cell survival (H9 cells [6]): more potent than to Y-27632, Thiazovivin or Fasudil; karyotype after long-term passaging (H9 cells [7]): maintained a normal karyotype
C[C@H](NC(=O)C(=O)Nc1ccccc1C(C)(C)C)C(=O)N[C@@H](CC(=O)O)C(=O)COc1c(F)c(F)cc(F)c1F [Emricasan, 3-(2-(2-tert-butylphenylaminooxalyl)aminopropionylamino)-4-oxo-5-(2,3,5,6-tetrafluorophenoxy)pentanoic acid] | – | – | – | – | – | did not result in proper cell aggregation and EB formation | not sufficient to improve cell viability beyond 24 hours | synergy with Chroman 1 on cell survival (HSA model) (H9 cells [8]): synergistic with Chroman 1; Emax (H9 cells [2]; H9, 24 h, read-out: Efficacy (activity range between predicted activities at zero and infinite doses, Hill equation)): 95.8%; Emax (H9 cells [2]; H9, 24 h, read-out: Max (maximum activity value from all tested concentrations)): 76.4%; AC50 (H9 cells [2]; H9 cell survival): 33.2 µM
O=C(COc1ccc(Cl)cc1)N[C@H]1CC[C@H](NC(=O)COc2ccc(Cl)cc2)CC1 [trans-ISRIB, N,N′-((1r,4r)-cyclohexane-1,4-diyl)bis(2-(4-chlorophenoxy)acetamide)] | – | – | – | – | – | – | – | cell survival when added to the combination of Chroman 1 and Emricasan (H9 cells [9]): further improved cell survival; cell survival at low density combined with 50 nM Chroman 1 and 5 μM Emricasan (H9 cells [10]): cell survival-promoting effect
